Measured values taken from patent US10364216B2, “Alkenyl sulfate ester or salt thereof” (Kao Corporation, priority 2013, dated 2019).
Structures can show the parent of a compound that is named as a salt.

Legend:
[1] = Action of reinforcing sweetness (previous intake of trans-3-octenyl sulfate); assay type: in vivo, human; conditions: 5 mM, 60 seconds before sucralose or glycyrrhizin 0.25 mM
Procedure: To six examiners, 4 kinds of 10 mL aqueous solutions of sucrose standard (2.5, 5.0, 7.5 and 10.0 wt %) were presented. The examiners kept each of the solutions in their mouth for 5 seconds or so, and then spat the solution out, and were asked to consider the sweetness intensity at that time (0 to 15) to be 2.5, 5, 7.5 and 10, respectively. Next, the examiners kept 10 mL aqueous solution of sucralose (0.25 mM) in their mouth for 5 seconds or so without knowing the kind and the concentration of the sweetener, and then spat the solution out, and compared the sweetness intensity at that time with that of the aqueous sucrose standard solution, and evaluated the sweetness intensity with a number in a range of 0 to 15. Subsequently, the examiners kept 10 mL solution of 5 mM trans-3-octenyl sulfate in advance in their mouth for 5 seconds or so in advance, and then spat the solution out, and after passage of 60 seconds, the examiners kept 10 mL aqueous solution of sucralose (0.25 mM) in their mouth for 5 seconds or so, and then spat the solution out, and compared the sweetness intensity at that time with that of the aqueous sucrose standard solution, and evaluated the sweetness intensity with a number in a range of 0 to 15.
To six examiners, 4 kinds of 10 mL aqueous sucrose standard solutions (2.5, 5.0, 7.5 and 10.0 wt %) were presented. The examiners kept each of the solutions in their mouth for 5 seconds or so, and then spat the solution out, and were asked to consider the sweetness intensity at that time (0 to 15) to be 2.5, 5, 7.5 and 10, respectively. Next, the examiners kept 10 mL aqueous solution of glycyrrhizin (0.25 mM) in their mouth for 5 seconds or so without knowing the kind and the concentration of the sweetener, and then spat the solution out, and compared the sweetness intensity at that time with that of the aqueous sucrose standard solution, and evaluated the sweetness intensity with a number in a range of 0 to 15. Subsequently, the examiners kept 10 mL solution of 5 mM trans-3-octenyl sulfate in their mouth for 5 seconds or so in advance, and then spat the solution out, and after passage of 60 seconds, the examiners kept 10 mL aqueous solution of glycyrrhizin (0.25 mM) in their mouth for 5 seconds or so, and then spat the solution out, and compared the sweetness intensity at that time with that of the aqueous sucrose standard solution, and evaluated the sweetness intensity with a number in a range of 0 to 15.

[2] = Evaluation of sweetness (3)/(4): sweetness intensity over time against sucrose standard solutions; assay type: in vivo, human
Procedure: (§1) To seven examiners, 4 kinds of 10 mL aqueous sucrose standard solutions (2.5, 5.0, 7.5 and 10.0 wt %) were presented. The examiners kept each of the solutions in their mouth for 5 seconds or so, and then spat the solution out, and were asked to consider the sweetness intensity at that time (0 to 15) to be 2.5, 5, 7.5 and 10, respectively. Next, the examiners kept 10 mL solution of 10 mM trans-3-octenyl sulfate in their mouth for 5 seconds or so, and then spat the solution out, and compared the sweetness intensity at that time with that of the aqueous sucrose standard solution, and evaluated the sweetness intensity with a number in a range of 0 to 15. Then, the examiners kept 10 mL pure water for 5 minutes at an interval of 30 seconds, and then spat the solution out, and evaluated the sweetness intensity at that time in the same manner.
as §1, with “four” for “4”, “cis-3-octenyl” for “trans-3-octenyl”, “water in their mouth” for “water”

CCCC/C=C/CCOS(=O)(=O)O [trans-3-octenyl sulfate]
Effect of previous intake on the sweetness of the sweetener [1]: effect of reinforcing the sweetness of the sweetener | Examiners who recognized the sweetness by virtue of intake of water ([2]; 10 mL of 10 mM solution, then pure water every 30 seconds): Seven out of the seven | Duration of sweetness ([2]; 10 mL of 10 mM solution, then pure water every 30 seconds for 5 minutes): the sweetness lasted for a certain time | Sweetness intensity (mean) ([2]; Time 0 minute, 10 mL of 10 mM solution kept 5 seconds, scale 0 to 15 vs sucrose standards, seven examiners): 0.0 | Sweetness intensity (mean) ([2]; Time 0.5 minute, on keeping 10 mL pure water, after 10 mM solution, scale 0 to 15): 1.7 | Sweetness intensity (mean) ([2]; Time 1 minute, on keeping 10 mL pure water, after 10 mM solution, scale 0 to 15): 3.6 | Sweetness intensity (mean) ([2]; Time 1.5 minute, on keeping 10 mL pure water, after 10 mM solution, scale 0 to 15): 3.9 | Sweetness intensity (mean) ([2]; Time 2 minute, on keeping 10 mL pure water, after 10 mM solution, scale 0 to 15): 3.6 | Sweetness intensity (mean) ([2]; Time 2.5 minute, on keeping 10 mL pure water, after 10 mM solution, scale 0 to 15): 3.0 | Sweetness intensity (mean) ([2]; Time 3 minute, on keeping 10 mL pure water, after 10 mM solution, scale 0 to 15): 2.1 | Sweetness intensity (mean) ([2]; Time 3.5 minute, on keeping 10 mL pure water, after 10 mM solution, scale 0 to 15): 1.1 | Sweetness intensity (mean) ([2]; Time 4 minute, on keeping 10 mL pure water, after 10 mM solution, scale 0 to 15): 0.8 | Sweetness intensity (mean) ([2]; Time 4.5 minute, on keeping 10 mL pure water, after 10 mM solution, scale 0 to 15): 0.5 | Sweetness intensity (mean) ([2]; Time 5 minute, on keeping 10 mL pure water, after 10 mM solution, scale 0 to 15): 0.6
